Assay results from the NIST ThermoML archive (doi:10.1021/je050147b).
Where “and” joins values, the source holds several entries; their conditions need not be identical. Equal values may be shown once.

Details: Liquid; for mass density: 101.33 kPa

CCCCn1cc[n+](C)c1.F[P-](F)(F)(F)(F)F [1-butyl-3-methylimidazolium hexafluorophosphate]
Details	mass density
273.1 K	1388.85 kg/m3
278.1 K	1384.55 kg/m3
283.1 K	1380.27 kg/m3
288.15 K	1375.99 kg/m3
293.15 K	1371.72 kg/m3
298.15 K	1367.45 kg/m3
303.15 K	1363.19 kg/m3
313.15 K	1354.95 kg/m3 and 1354.96 kg/m3
323.15 K	1346.75 kg/m3
333.15 K	1338.58 kg/m3
343.15 K	1330.45 kg/m3
353.15 K	1322.38 kg/m3
363.15 K	1314.36 kg/m3

Details	viscosity
273.15 K, 100 kPa	1717 mPa·s
278.15 K, 100 kPa	1119 mPa·s
283.15 K, 100 kPa	755 mPa·s
288.15 K, 100 kPa	521 mPa·s
293.15 K, 100 kPa	369 mPa·s
298.15 K, 100 kPa	271 mPa·s and 273 mPa·s
298.15 K, 12100 kPa	329 mPa·s
298.15 K, 24700 kPa	391 mPa·s
298.15 K, 25700 kPa	390 mPa·s
298.15 K, 50600 kPa	546 mPa·s
298.15 K, 75800 kPa	761 mPa·s
298.15 K, 100300 kPa	1047 mPa·s
298.15 K, 125100 kPa	1432 mPa·s
298.15 K, 125600 kPa	1461 mPa·s
298.15 K, 150300 kPa	1995 mPa·s
298.15 K, 174100 kPa	2694 mPa·s
303.15 K, 100 kPa	202 mPa·s
308.15 K, 100 kPa	158.4 mPa·s
308.15 K, 900 kPa	159.7 mPa·s
308.15 K, 9600 kPa	179.1 mPa·s
308.15 K, 25800 kPa	221 mPa·s
308.15 K, 50300 kPa	302 mPa·s
308.15 K, 75600 kPa	412 mPa·s
308.15 K, 100300 kPa	557 mPa·s
308.15 K, 125200 kPa	750 mPa·s
308.15 K, 140600 kPa	898 mPa·s
308.15 K, 151000 kPa	1016 mPa·s
313.15 K, 100 kPa	120 mPa·s
323.15 K, 100 kPa	73.6 mPa·s and 74.1 mPa·s and 74.9 mPa·s
323.15 K, 1300 kPa	74.9 mPa·s
323.15 K, 3100 kPa	76.9 mPa·s
323.15 K, 5600 kPa	78.2 mPa·s
323.15 K, 10700 kPa	82.7 mPa·s
323.15 K, 25800 kPa	98.9 mPa·s
323.15 K, 50800 kPa	127.8 mPa·s
323.15 K, 75800 kPa	173.5 mPa·s
323.15 K, 100700 kPa	224 mPa·s
323.15 K, 125500 kPa	281 mPa·s
323.15 K, 150400 kPa	371 mPa·s
323.15 K, 175200 kPa	481 mPa·s
323.15 K, 200000 kPa	616 mPa·s
323.15 K, 224600 kPa	784 mPa·s
323.15 K, 249300 kPa	995 mPa·s
333.15 K, 100 kPa	49.5 mPa·s [middle of 4 runs]
333.15 K, 10700 kPa	55.8 mPa·s
333.15 K, 26200 kPa	66 mPa·s
333.15 K, 51100 kPa	85.6 mPa·s
333.15 K, 75700 kPa	109.8 mPa·s
333.15 K, 91100 kPa	128 mPa·s
333.15 K, 100100 kPa	139.4 mPa·s
343.15 K, 100 kPa	35.1 mPa·s and 34.7 mPa·s and 34.6 mPa·s
343.15 K, 5500 kPa	37.2 mPa·s
343.15 K, 10600 kPa	39.2 mPa·s
343.15 K, 25700 kPa	45.6 mPa·s
343.15 K, 50600 kPa	58 mPa·s
343.15 K, 75600 kPa	73.7 mPa·s
343.15 K, 100600 kPa	92.9 mPa·s
343.15 K, 125400 kPa	116.2 mPa·s
343.15 K, 140200 kPa	132.6 mPa·s
343.15 K, 149900 kPa	144.4 mPa·s
343.15 K, 172900 kPa	176.1 mPa·s
353.15 K, 100 kPa	25.5 mPa·s
